From ChEMBL document CHEMBL1201862, “PubChem BioAssay data set” (2004)
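Where inhibition never reached the appropriate level, the endpoint shown equals the highest concentration tested. Otherwise, values were interpolated linearly from a five-concentration, 48-hour dose response in 96-well plates. GI50 is the concentration that inhibits growth by half.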 Calls of active or inactive are those of the source. Cut-off read from the data, not from the text of the source: active = GI50 up to about 1.1 µM and inactive = higher.

Key:
Assay in all cases: NCI-60 cell line screen, 48 h
[1] = tested on: SK-OV-3
[2] = tested on: SK-MEL-2
[3] = tested on: OVCAR-8
[4] = tested on: SF-268
[5] = tested on: T47D
[6] = tested on: Malme-3M
[7] = tested on: HCT-15
[8] = tested on: KM12
[9] = tested on: SK-MEL-5
[10] = tested on: NCI-H460
[11] = tested on: NCI-H522
[12] = tested on: CCRF-CEM
[13] = tested on: A549
[14] = tested on: TK-10
[15] = tested on: SNB-75
[16] = tested on: MDA-N
[17] = tested on: UACC-257
[18] = tested on: BT-549
[19] = tested on: NCI-H226
[20] = tested on: M19-MEL

Row | SMILES | GI50 [1] | GI50 [2] | GI50 [3] | GI50 [4] | GI50 [5] | GI50 [6] | GI50 [7] | GI50 [8] | GI50 [9] | GI50 [10] | GI50 [11] | GI50 [12] | GI50 [13] | GI50 [14] | GI50 [15] | GI50 [16] | GI50 [17] | GI50 [18] | GI50 [19] | GI50 [20]
1 | COc1ccc(C(=O)CC(c2ccc(OC)c(OC)c2)c2c(O)oc3ccccc3c2=O)cc1OC (centres undefined) | > 100 µM (inactive) | > 100 µM (inactive) | > 100 µM (inactive) | > 100 µM (inactive) | > 100 µM (inactive) | > 100 µM (inactive) | > 100 µM | > 100 µM (inactive) | > 100 µM (inactive) | > 100 µM (inactive) | > 100 µM (inactive) | > 100 µM (inactive) | > 100 µM (inactive) | > 100 µM (inactive) | > 100 µM (inactive) | > 100 µM (inactive) | > 100 µM (inactive) | > 100 µM (inactive) | > 100 µM (inactive) | 
2 | CC(=O)C1=NN(c2ccccc2)C2(S1)SC(c1ccccc1)(c1ccccc1)c1ccccc12 (centres undefined) | 30.8 µM (inactive) | 27 µM (inactive) | 34.9 µM (inactive) | 40.1 µM (inactive) |  | 37.4 µM (inactive) | > 100 µM | 74.5 µM (inactive) |  | 32.3 µM (inactive) | 22.9 µM (inactive) | 49.3 µM (inactive) | 36.7 µM (inactive) | 63.7 µM (inactive) | 19.3 µM (inactive) |  | 34.4 µM (inactive) |  | 16.1 µM (inactive) | 47.8 µM (inactive)
3 | COC(=O)CC1C=CC(C)(OC)OO1 (centres undefined) | > 100 µM (inactive) | > 100 µM (inactive) | > 100 µM (inactive) | > 100 µM (inactive) | > 100 µM (inactive) | 78.7 µM (inactive) | 39.4 µM | > 100 µM (inactive) | > 100 µM (inactive) | 4.84 µM (inactive) | 16.9 µM (inactive) | 15.7 µM (inactive) | 26 µM (inactive) | > 100 µM (inactive) | > 100 µM (inactive) | > 100 µM (inactive) | > 100 µM (inactive) | > 100 µM (inactive) | > 100 µM (inactive) | 
4 | COc1cc(C2=C(c3cc(OC)c4ccccc4c3OC)C(=O)c3ccccc3C2=O)c(OC)c2ccccc12 | > 100 µM (inactive) | > 100 µM (inactive) | > 100 µM (inactive) | > 100 µM (inactive) | > 100 µM (inactive) | 62.5 µM (inactive) | > 100 µM | > 100 µM (inactive) | > 100 µM (inactive) | > 100 µM (inactive) | > 100 µM (inactive) | > 100 µM (inactive) | > 100 µM (inactive) | > 100 µM (inactive) | > 100 µM (inactive) | > 100 µM (inactive) | > 100 µM (inactive) | > 100 µM (inactive) | 59.6 µM (inactive) | 
5 | COC(=O)CC(NC(=O)OCc1ccccc1)C(C(=O)OCc1ccccc1)C(C)(OC)OC (centres undefined) |  | 17.6 µM (inactive) | 19.5 µM (inactive) | 39.9 µM (inactive) |  | 28 µM (inactive) | 32.1 µM |  | 12.4 µM (inactive) | 31.7 µM (inactive) |  | 13 µM (inactive) | 17.3 µM (inactive) | 39.2 µM (inactive) | 16.4 µM (inactive) |  | 23.7 µM (inactive) |  | 22.6 µM (inactive) | 27.7 µM (inactive)
6 | Cc1ccc(N)c(S)c1 | 27.9 µM (inactive) | 17.2 µM (inactive) | 17.1 µM (inactive) | 20.8 µM (inactive) | 14.8 µM (inactive) | 30.5 µM (inactive) | 16.7 µM | 18.3 µM (inactive) | 16.5 µM (inactive) | 22 µM (inactive) | 17.9 µM (inactive) | 18 µM (inactive) | 21.5 µM (inactive) | 21.8 µM (inactive) | 21.7 µM (inactive) | 14.9 µM (inactive) | 23.3 µM (inactive) | 18.6 µM (inactive) | 22 µM (inactive) | 
7 | C#C[C@@H](CCCC)OC(=O)N[C@H](C)c1ccccc1 | > 100 µM (inactive) | 23.4 µM (inactive) | 13.7 µM (inactive) | 2.17 µM (inactive) |  |  |  | 39.7 µM (inactive) | 20.6 µM (inactive) | 56.6 µM (inactive) | 1.74 µM (inactive) | 25.7 µM (inactive) | 6.82 µM (inactive) | 29.2 µM (inactive) | 33.3 µM (inactive) |  | 44.8 µM (inactive) |  | 22.5 µM (inactive) | 38.5 µM (inactive)
8 | CCCP1(=O)C=C(C)C(=C(Cl)Cl)C(C)=C1 (centres undefined) |  | 16.3 µM (inactive) | 37.9 µM (inactive) | 25.9 µM (inactive) |  | 25.7 µM (inactive) | 30.7 µM | 24.2 µM (inactive) | 24.1 µM (inactive) | 37.4 µM (inactive) | 18.3 µM (inactive) | 39.5 µM (inactive) | 33.7 µM (inactive) | > 100 µM (inactive) |  |  | 64.4 µM (inactive) |  |  | 47.9 µM (inactive)
9 | CC/C=C\C/C=C\C1CC(=O)NCCCNCCCCN1 (centres undefined) |  | 68.9 µM (inactive) | > 100 µM (inactive) | > 100 µM (inactive) |  | 15.6 µM (inactive) |  | > 100 µM (inactive) | > 100 µM (inactive) | > 100 µM (inactive) | 55.3 µM (inactive) |  | > 100 µM (inactive) | > 100 µM (inactive) | > 100 µM (inactive) |  | > 100 µM (inactive) |  | 59.7 µM (inactive) | > 100 µM (inactive)
10 | O=[N+]([O-])c1cc(-c2nnc(S)[nH]2)ccc1O | > 100 µM (inactive) | > 100 µM (inactive) |  | > 100 µM (inactive) |  | > 100 µM (inactive) | 16.5 µM | > 100 µM (inactive) | > 100 µM (inactive) | 44.4 µM (inactive) |  | > 100 µM (inactive) | > 100 µM (inactive) | > 100 µM (inactive) |  |  | > 100 µM (inactive) |  |  | 86.3 µM (inactive)
11 | Cc1cccc2c1CC(C1OC(=O)c3ccccc31)C2=O (centres undefined) | > 100 µM (inactive) | > 100 µM (inactive) | > 100 µM (inactive) | > 100 µM (inactive) | > 100 µM (inactive) | > 100 µM (inactive) | > 100 µM | > 100 µM (inactive) | > 100 µM (inactive) | > 100 µM (inactive) | > 100 µM (inactive) | > 100 µM (inactive) | > 100 µM (inactive) | > 100 µM (inactive) | > 100 µM (inactive) | > 100 µM (inactive) | > 100 µM (inactive) | > 100 µM (inactive) | > 100 µM (inactive) | 
12 | COc1ccc(N2C(=O)CC(=O)N(NC(=O)C(C)Oc3ccccc3C)C2=S)cc1 (centres undefined) | > 100 µM (inactive) | > 100 µM (inactive) | > 100 µM (inactive) | > 100 µM (inactive) | > 100 µM (inactive) | > 100 µM (inactive) | > 100 µM | > 100 µM (inactive) | > 100 µM (inactive) | > 100 µM (inactive) | > 100 µM (inactive) | > 100 µM (inactive) | > 100 µM (inactive) | > 100 µM (inactive) | > 100 µM (inactive) | > 100 µM (inactive) | > 100 µM (inactive) | > 100 µM (inactive) | > 100 µM (inactive) | 
13 | COc1ccc(N2C(=O)C3c4[nH]c5ccccc5c4C4CC(C)(C)CC(C)(C)C4C3C2=O)cc1 (centres undefined) | 17.3 µM (inactive) |  | 3.2 µM (inactive) | 16.4 µM (inactive) |  | 16.4 µM (inactive) | 30.2 µM |  | 19.4 µM (inactive) |  | 17.2 µM (inactive) | 69.7 µM (inactive) | 13.2 µM (inactive) |  | 16.8 µM (inactive) |  | 19.4 µM (inactive) |  | 14 µM (inactive) | 15.1 µM (inactive)
14 | c1cnc2c(c1)-n1cccc1C1(CCSCC1)NN2 |  | > 100 µM (inactive) | > 100 µM (inactive) | > 100 µM (inactive) |  | > 100 µM (inactive) | 80.2 µM | > 100 µM (inactive) | > 100 µM (inactive) | 83.4 µM (inactive) | 95.3 µM (inactive) | > 100 µM (inactive) | > 100 µM (inactive) | 42.6 µM (inactive) | 53.5 µM (inactive) |  | 90.2 µM (inactive) |  | 59 µM (inactive) | 48.5 µM (inactive)
15 | O=C1/C(=C/c2ccc(Cl)cc2)COc2ccc(Br)cc21 | > 100 µM (inactive) | > 100 µM (inactive) | > 100 µM (inactive) | > 100 µM (inactive) |  | > 100 µM (inactive) |  | > 100 µM (inactive) | > 100 µM (inactive) | > 100 µM (inactive) | 69.7 µM (inactive) | 61.1 µM (inactive) | > 100 µM (inactive) | > 100 µM (inactive) | > 100 µM (inactive) |  | > 100 µM (inactive) |  |  | > 100 µM (inactive)
16 | FC(F)(F)C1(c2ccccc2)SCc2nc3ccccc3n21 (centres undefined) | > 100 µM (inactive) | > 100 µM (inactive) | > 100 µM (inactive) | > 100 µM (inactive) | 62.8 µM (inactive) | > 100 µM (inactive) | 78.7 µM | > 100 µM (inactive) | 66.1 µM (inactive) | 80.9 µM (inactive) | 55.6 µM (inactive) | 88.1 µM (inactive) | > 100 µM (inactive) | > 100 µM (inactive) | 88.1 µM (inactive) | 38.3 µM (inactive) | > 100 µM (inactive) | > 100 µM (inactive) | > 100 µM (inactive) | 
17 | COc1ccc2nc(-c3cccs3)cc(C(O)CN3CCSCC3)c2c1 (centres undefined) | 39.6 µM (inactive) | 17 µM (inactive) | 16.6 µM (inactive) | 27 µM (inactive) |  | 15.2 µM (inactive) | 16.1 µM | 22.3 µM (inactive) | 16.4 µM (inactive) | 16.3 µM (inactive) | 14.1 µM (inactive) | 11.9 µM (inactive) | 30.1 µM (inactive) | 31.2 µM (inactive) | 23.6 µM (inactive) |  | 21.2 µM (inactive) |  |  | 22.8 µM (inactive)
